According to ChEMBL document CHEMBL5537192, “Specific Inhibitors of Mitochondrial Deacylase Sirtuin 4 Endowed with Cellular Activity” (J Med Chem, 2024):

Experiments:
[1] = biological target: T1, NAD-dependent protein lipoamidase sirtuin-4, mitochondrial (Homo sapiens, UniProt Q9Y6E7); assay: Inhibition of N-terminal 6His-tagged human Sirt4 (25 to 314 residues) expressed in Escherichia coli CodonPlus(DE3) cells using HMG-FdL as substrate at 100 uM preincubated for 20 mins followed by NAM addition and measured after 45 mins in presence of NAD+ by fluorescence based assay relative to control
T1 sequence (Q9Y6E7 whole entry): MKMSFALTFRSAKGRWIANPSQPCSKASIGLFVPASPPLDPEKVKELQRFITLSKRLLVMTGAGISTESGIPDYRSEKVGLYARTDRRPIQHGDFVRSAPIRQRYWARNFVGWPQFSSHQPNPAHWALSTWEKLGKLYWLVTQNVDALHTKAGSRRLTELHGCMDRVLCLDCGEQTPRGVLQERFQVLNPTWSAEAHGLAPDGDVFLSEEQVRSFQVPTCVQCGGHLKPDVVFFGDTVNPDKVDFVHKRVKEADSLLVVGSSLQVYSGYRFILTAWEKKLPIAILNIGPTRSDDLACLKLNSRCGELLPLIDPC

C2C12 = assay: Cytotoxicity against mouse C2C12 cells assessed as effect o cell viability at 1 to 100 uM incubated for 4 hrs by trypan blue reagent based phase contrast microscopic analysis; type: toxicity; conditions: c2c12, 4 h, dose 1-100 µM

Row | Structure (SMILES) | IC50 [1] | Activity (C2C12)
1 | NC(=O)C1=CN([C@@H]2O[C@H](COP(=O)(O)OP(=O)(O)OC[C@H]3O[C@@H](n4cnc5c(N)ncnc54)[C@H](O)[C@@H]3O)[C@@H](O)[C@H]2O)C=CC1 | ~126 µM | 
2 | CCCc1cc(=O)[nH]c(SCC(=O)Nc2ccc(S(=O)(=O)c3ccc([N+](=O)[O-])cc3)cc2)n1 |  | Non-Toxic
